This note sets out measurements from ChEMBL document CHEMBL5233233, “Histone deacetylase 3 (HDAC3) inhibitors as anticancer agents: A review” (Eur J Med Chem, 2020).

In test [1] the target is T1, Histone deacetylase 3 (Homo sapiens, UniProt O15379). As to the kind of experiment: Inhibition of HDAC3 (unknown origin) using Boc-Lys (Ac)-AMC as substrate measured after 30 mins by fluorescence based analysis.
Test [2] addresses T2, Histone deacetylase 1 (Homo sapiens, UniProt Q13547). In words: Inhibition of HDAC1 (unknown origin) using Boc-Lys (Ac)-AMC as substrate measured after 30 mins by fluorescence based analysis.
For test [3], the target named is T3, Protein deacetylase HDAC6 (Homo sapiens, UniProt Q9UBN7).
T3 sequence (Q9UBN7 whole entry): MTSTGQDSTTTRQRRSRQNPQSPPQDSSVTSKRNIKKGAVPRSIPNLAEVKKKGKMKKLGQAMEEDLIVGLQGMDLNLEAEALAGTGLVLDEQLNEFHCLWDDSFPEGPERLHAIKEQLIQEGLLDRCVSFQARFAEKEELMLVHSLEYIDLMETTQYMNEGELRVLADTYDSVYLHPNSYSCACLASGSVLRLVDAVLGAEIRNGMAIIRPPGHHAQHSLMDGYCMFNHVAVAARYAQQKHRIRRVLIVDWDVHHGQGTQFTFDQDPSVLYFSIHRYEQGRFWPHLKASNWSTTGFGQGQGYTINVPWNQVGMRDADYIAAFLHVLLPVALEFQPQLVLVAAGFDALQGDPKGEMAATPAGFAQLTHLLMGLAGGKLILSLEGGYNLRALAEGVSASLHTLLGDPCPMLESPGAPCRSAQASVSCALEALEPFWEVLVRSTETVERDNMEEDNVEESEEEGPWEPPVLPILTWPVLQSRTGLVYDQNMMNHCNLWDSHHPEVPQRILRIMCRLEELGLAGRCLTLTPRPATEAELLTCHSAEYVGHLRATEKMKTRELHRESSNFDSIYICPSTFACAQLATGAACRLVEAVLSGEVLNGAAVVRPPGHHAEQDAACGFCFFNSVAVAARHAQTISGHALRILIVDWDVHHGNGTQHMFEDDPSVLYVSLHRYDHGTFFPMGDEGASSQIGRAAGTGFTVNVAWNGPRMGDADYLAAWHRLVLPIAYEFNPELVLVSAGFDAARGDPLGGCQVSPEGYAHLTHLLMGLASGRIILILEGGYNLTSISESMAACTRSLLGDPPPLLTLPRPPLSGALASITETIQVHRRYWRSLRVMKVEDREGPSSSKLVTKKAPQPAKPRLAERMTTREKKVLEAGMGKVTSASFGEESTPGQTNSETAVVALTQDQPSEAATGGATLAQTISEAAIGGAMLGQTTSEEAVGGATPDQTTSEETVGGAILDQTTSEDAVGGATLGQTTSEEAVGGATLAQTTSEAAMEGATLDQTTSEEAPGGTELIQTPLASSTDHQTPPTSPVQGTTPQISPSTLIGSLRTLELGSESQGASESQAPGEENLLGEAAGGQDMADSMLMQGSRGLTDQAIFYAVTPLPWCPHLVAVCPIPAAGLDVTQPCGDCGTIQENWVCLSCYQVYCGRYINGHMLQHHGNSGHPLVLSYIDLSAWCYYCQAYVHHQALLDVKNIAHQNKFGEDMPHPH
In words: Inhibition of HDAC6 (unknown origin) using Boc-Lys (Ac)-AMC as substrate measured after 30 mins by fluorescence based analysis.

Test [4] has as its target T2, Histone deacetylase 1. In words: Inhibition of human recombinant HDAC1 using fluorogenic HDAC substrate measured after 20 mins by fluorescence assay.
Test [5] concerns the target T4, Histone deacetylase 2 (Homo sapiens, UniProt Q92769). In words: Inhibition of human recombinant HDAC2 using fluorogenic HDAC substrate measured after 20 mins by fluorescence assay.
Test [6] deals with T1, Histone deacetylase 3. As to the kind of experiment: Inhibition of human HDAC3 using fluorogenic as substrate measured after 30 mins by fluorescence based analysis.
A further test has as its system PC-3. As to the kind of experiment: Anticancer activity against human PC-3 cells assessed as reduction in cell viability. The format is functional, cell-based.
The target of test [7] is T2, Histone deacetylase 1. As to the kind of experiment: Inhibition of human recombinant HDAC1 using (FAM)-labeled acetylated peptide substrate at 1 uM incubated for 17 hrs by fluorescence based analysis.
Test [8] addresses T4, Histone deacetylase 2. As to the kind of experiment: Inhibition of human recombinant HDAC2 using (FAM)-labeled acetylated peptide substrate at 1 uM incubated for 17 hrs by fluorescence based analysis.
The target in test [9] is T5, Histone deacetylase 8 (Homo sapiens, UniProt Q9BY41).
T5 sequence (Q9BY41 whole entry): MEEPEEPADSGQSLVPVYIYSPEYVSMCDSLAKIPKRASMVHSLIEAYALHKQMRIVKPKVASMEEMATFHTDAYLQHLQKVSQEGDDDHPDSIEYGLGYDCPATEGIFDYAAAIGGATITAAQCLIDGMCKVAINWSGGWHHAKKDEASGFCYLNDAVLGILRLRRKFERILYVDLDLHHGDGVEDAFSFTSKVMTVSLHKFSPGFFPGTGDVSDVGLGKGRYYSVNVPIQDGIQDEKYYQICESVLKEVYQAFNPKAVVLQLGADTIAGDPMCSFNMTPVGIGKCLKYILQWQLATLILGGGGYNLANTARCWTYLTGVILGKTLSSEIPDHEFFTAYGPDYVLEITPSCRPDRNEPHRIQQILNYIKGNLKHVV
In words: Inhibition of human recombinant HDAC8 using (FAM)-labeled acetylated peptide substrate at 1 uM incubated for 17 hrs by fluorescence based analysis.

For test [10], the target named is T3, Protein deacetylase HDAC6. As to the kind of experiment: Inhibition of human recombinant HDAC6 using (FAM)-labeled acetylated peptide substrate at 1 uM incubated for 17 hrs by fluorescence based analysis.
The target of test [11] is T1, Histone deacetylase 3. As to the kind of experiment: Inhibition of HDAC3 (unknown origin) at 5uM.
The target in test [12] is T4, Histone deacetylase 2. As to the kind of experiment: Inhibition of human recombinant HDAC2 using Fluor-de-Lys as substrate at 50 uM for 30 mins by fluorescence based assay.
Test [13] deals with T2, Histone deacetylase 1. As to the kind of experiment: Inhibition of human recombinant HDAC1 using Fluor-de-Lys as substrate at 50 uM for 30 mins by fluorescence based assay.
Test [14] deals with T6, Polyamine deacetylase HDAC10 (Homo sapiens, UniProt Q969S8).
T6 sequence (Q969S8 whole entry): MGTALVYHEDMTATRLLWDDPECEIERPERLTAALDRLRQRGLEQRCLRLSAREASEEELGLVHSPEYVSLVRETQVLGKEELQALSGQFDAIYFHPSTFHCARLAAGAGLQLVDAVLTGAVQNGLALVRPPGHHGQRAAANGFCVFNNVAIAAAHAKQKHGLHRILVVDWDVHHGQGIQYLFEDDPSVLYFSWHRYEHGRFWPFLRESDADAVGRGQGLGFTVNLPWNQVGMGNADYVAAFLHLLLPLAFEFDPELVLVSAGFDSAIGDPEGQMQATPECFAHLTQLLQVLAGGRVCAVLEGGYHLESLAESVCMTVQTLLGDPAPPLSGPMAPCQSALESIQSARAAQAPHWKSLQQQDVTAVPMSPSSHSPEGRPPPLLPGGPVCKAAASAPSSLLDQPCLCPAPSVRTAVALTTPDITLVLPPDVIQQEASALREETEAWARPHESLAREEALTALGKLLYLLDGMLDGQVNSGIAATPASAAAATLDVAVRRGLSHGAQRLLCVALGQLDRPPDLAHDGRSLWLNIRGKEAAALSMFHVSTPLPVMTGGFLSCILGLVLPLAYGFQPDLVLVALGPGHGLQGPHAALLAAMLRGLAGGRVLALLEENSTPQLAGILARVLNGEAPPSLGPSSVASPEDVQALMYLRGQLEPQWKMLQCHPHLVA
As to the kind of experiment: Inhibition of human recombinant HDAC10 using Fluor-de-Lys as substrate at 50 uM for 30 mins by fluorescence based assay.

In test [15] the target is T3, Protein deacetylase HDAC6. As to the kind of experiment: Inhibition of human recombinant HDAC6 using Fluor-de-Lys as substrate at 50 uM for 30 mins by fluorescence based assay.
Test [16] deals with T1, Histone deacetylase 3. As to the kind of experiment: Inhibition of HDAC3 (unknown origin) at 10 uM.
The target of test [17] is T2, Histone deacetylase 1. As to the kind of experiment: Inhibition of human HDAC1 by fluorescence based assay method.
Test [18] has as its target T2, Histone deacetylase 1. In words: Inhibition of HDAC1 (unknown origin).
The target of test [19] is T4, Histone deacetylase 2. As to the kind of experiment: Inhibition of HDAC2 (unknown origin).
The target of test [20] is T1, Histone deacetylase 3. As to the kind of experiment: Inhibition of HDAC3 (unknown origin).
The target of test [21] is T5, Histone deacetylase 8. In words: Inhibition of HDAC8 (unknown origin).
For test [22], the target named is T2, Histone deacetylase 1. In words: Inhibition of human recombinant HDAC1 at 50 uM measured after 24 hrs by fluorometric analysis.
In test [23] the target is T1, Histone deacetylase 3. As to the kind of experiment: Inhibition of recombinant HDAC3 (unknown origin) measured after 24 hrs by fluorometric analysis.
Test [24] concerns the target T4, Histone deacetylase 2. As to the kind of experiment: Inhibition of recombinant HDAC2 (unknown origin) at 50 uM measured after 24 hrs by fluorometric based analysis.

T1 sequence (O15379 whole entry): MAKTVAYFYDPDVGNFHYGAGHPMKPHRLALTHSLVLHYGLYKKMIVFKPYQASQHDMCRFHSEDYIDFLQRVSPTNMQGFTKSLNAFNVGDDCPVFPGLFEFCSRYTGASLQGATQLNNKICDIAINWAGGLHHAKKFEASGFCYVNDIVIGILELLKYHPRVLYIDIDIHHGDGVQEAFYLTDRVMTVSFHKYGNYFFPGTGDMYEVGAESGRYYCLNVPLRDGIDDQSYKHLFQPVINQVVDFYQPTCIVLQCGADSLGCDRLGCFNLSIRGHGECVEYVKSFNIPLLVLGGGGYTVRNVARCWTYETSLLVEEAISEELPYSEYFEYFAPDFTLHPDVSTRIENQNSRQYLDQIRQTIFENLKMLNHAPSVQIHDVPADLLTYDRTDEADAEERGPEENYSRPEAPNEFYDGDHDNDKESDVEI
T2 sequence (Q13547 whole entry): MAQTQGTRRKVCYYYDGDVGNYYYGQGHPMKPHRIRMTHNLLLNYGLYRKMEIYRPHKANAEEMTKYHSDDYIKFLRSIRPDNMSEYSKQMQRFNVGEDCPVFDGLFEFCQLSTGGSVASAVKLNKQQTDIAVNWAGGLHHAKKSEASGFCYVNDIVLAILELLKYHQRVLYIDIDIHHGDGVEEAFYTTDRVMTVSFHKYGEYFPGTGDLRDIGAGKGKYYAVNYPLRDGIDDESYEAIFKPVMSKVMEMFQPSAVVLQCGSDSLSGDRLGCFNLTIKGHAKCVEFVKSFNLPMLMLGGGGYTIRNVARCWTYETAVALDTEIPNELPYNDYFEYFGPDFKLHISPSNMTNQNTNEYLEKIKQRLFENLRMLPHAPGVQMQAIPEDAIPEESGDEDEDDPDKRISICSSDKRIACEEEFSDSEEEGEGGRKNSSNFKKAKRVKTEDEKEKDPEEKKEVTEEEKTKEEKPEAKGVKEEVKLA
T4 sequence (Q92769 whole entry): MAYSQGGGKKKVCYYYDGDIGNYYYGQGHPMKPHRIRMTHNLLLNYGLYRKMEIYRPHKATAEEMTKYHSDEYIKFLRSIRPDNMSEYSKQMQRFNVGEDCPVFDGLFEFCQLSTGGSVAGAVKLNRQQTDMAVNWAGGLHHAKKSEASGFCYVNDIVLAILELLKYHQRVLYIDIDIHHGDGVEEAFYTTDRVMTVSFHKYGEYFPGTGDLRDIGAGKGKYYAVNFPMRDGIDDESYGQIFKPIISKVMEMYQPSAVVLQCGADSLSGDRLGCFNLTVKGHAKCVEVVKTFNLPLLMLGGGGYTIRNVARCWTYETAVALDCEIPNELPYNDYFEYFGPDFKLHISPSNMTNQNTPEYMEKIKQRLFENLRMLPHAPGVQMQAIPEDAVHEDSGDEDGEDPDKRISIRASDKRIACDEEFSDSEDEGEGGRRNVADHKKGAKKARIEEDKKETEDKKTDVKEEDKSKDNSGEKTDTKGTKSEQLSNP

The term IC50 denotes the concentration needed to halve the response being measured. Regarding `COC(=O)/C=C/c1ccc(OCCCNc2cc3c([nH]c4ccccc43)c(-c3ccc(OC)cc3)n2)c(OC)c1`, the IC50 at Histone deacetylase 3 [1] is 148 nM; against Histone deacetylase 1 [2], 27 nM; in [3], 13 nM.

In the case of `COc1ccccc1NC(=O)N[C@H](C(=O)Nc1ccc(C(=O)NO)cc1)c1ccccc1`, the IC50 on Histone deacetylase 1 [4] came to 4.8 nM; on Histone deacetylase 2 [5], 19.5 nM; against Histone deacetylase 3 [6], 5.9 nM; with PC-3 it was 1510 nM.

`Nc1ccccc1NC(=O)CCCCCCC(=O)Nc1cccc(-c2cn(-c3ccccc3)nn2)c1`: the IC50 (on Histone deacetylase 1 [7]; at Histone deacetylase 2 [8]; at Histone deacetylase 8 [9]; in test [10]) was above 30000 nM in each case.

As for `O=C(CCCCCCN1C=Cc2ccccc2C1)NO`, the midpoint of inhibition against Histone deacetylase 3 [11], the IC50, lay at 97 nM.

With `Nc1ccccc1NC(=O)CCCCCCC(=O)NO`, the IC50 was 101 nM on Histone deacetylase 2 [12], 67.2 nM at Histone deacetylase 1 [13], 49.3 nM in test [14] and 9.93 nM in test [15].

The compound `COc1ccc(C(=O)N[C@@H](Cc2c[nH]c3ccccc23)C(=O)Nc2ccc(C(=O)Nc3ccc(-c4cccs4)cc3N)cc2)cc1` had an IC50 against Histone deacetylase 3 [16] of 62500 nM.

Compound `Nc1ccccc1NC(=O)c1ccc(CNc2nc(-c3ccccc3)c(-c3ccccc3)o2)cc1` yielded an IC50 against Histone deacetylase 1 [17] of 6 nM.

In the case of `Nc1ccccc1NC(=O)c1ccc(CNc2nc(-c3ccccc3)cs2)cc1`, the IC50 at Histone deacetylase 1 [18] was 930 nM; at Histone deacetylase 2 [19] it was 85 nM; on Histone deacetylase 3 [20], 12 nM; at Histone deacetylase 8 [21], 4100 nM.

Consider `COC(=O)/C=C/c1ccc(OCCNc2cc3c([nH]c4ccccc43)c(-c3ccc(OC)cc3)n2)c(OC)c1`, for which the IC50 at Histone deacetylase 3 [1] stood at 125 nM; on Histone deacetylase 1 [2] it was 32 nM; in [3], 17 nM.

On to `Nc1ccc(F)cc1NC(=O)c1cc2ccccc2o1`, for which the IC50 on Histone deacetylase 1 [22] was found to be 1200 nM; at Histone deacetylase 3 [23], 80 nM; on Histone deacetylase 2 [24], 1500 nM.
